One experiment has as its system P. falc. Put plainly: Biological activity EC50, P. falc (strain not given). The experiment is classed as cell-based. Conditions: Plasmodium falciparum; Target (Cell Line): P. falc.
In a further experiment the test system is P. falc W2. Put plainly: Biological activity EC50, P. falc W2. In kind it is cell-based. The note with it: Plasmodium falciparum.
The next experiment has as its system P. falc D10. Put plainly: Biological activity EC50, P. falc D10. The note with it: Target (Cell Line): P. falc D10. In kind it is cell-based, P. falciparum.
A further experiment deals with HeLa. Put plainly: Biological activity EC50, HeLa. The experiment is classed as cell-based. Conditions: Homo sapiens; Target (Cell Line): HeLa.
The test system of a further experiment is PC-3. As to the kind of experiment: Biological activity EC50, PC-3. The note with it: Homo sapiens; Target (Cell Line): PC-3. The experiment is classed as cell-based.
The next experiment relates to MCF-7. Put plainly: Biological activity EC50, MCF-7. In kind it is cell-based. Conditions: Homo sapiens, MCF7; Target (Cell Line): MCF-7.
The subject of the next experiment is MB-MDA-231. Put plainly: Biological activity EC50, MB-MDA-231. The experiment is classed as cell-based.
Another experiment concerns U87MG. Put plainly: Biological activity EC50, U87MG. The note with it: Homo sapiens, U-87 MG; Target (Cell Line): U87MG. In kind it is cell-based.
For a further experiment, the system named is IMR90. Put plainly: Biological activity EC50, IMR90. Conditions: Homo sapiens, IMR-90; Target (Cell Line): IMR90. In kind it is cell-based.
A further experiment concerns P. falc DD2. Put plainly: Biological activity EC50, P. falc DD2. In kind it is cell-based. Conditions: Plasmodium falciparum; Target (Cell Line): P. falc DD2.
[1] abbreviates: Target (Cell Line): P. falc W2, read-out: Activity EC50.
The mark [2] stands for this setting: Target (Cell Line): MB-MDA-231, read-out: Activity EC50.

Molecules are shown by their SMILES. “And” between values parts separate entries of the source, which are not always exact repeats. Equal values may be shown once. Where a name gives a salt, the structure may show the parent alone. Read-outs that look alike come from different tables or passages of the source. A value given as a limit tells only on which side of the number the result lay.

In general, EC50 refers to the concentration at which the effect is half-maximal. `O=C(Nc1cc(Cl)ccc1Cl)O[C@@H]1C[C@H](OC(=O)Nc2cc(Cl)ccc2Cl)CC2(C1)OOC1(O2)C2CC3CC(C2)CC1C3` (relative stereo) [Example 4, (3″R*,5″S*)-5″-{[(2,5-dichlorophenyl)carbamoyl]oxy}dispiro[adamantane-2,2′-[1,3,5]trioxolane-4′,1″-cyclohexane]-3″-yl N-(2,5-dichlorophenyl)carbamate] displayed an EC50 with P. falc of 147 nM.
For `O=C1CCCC2(C1)OOC1(O2)C2CC3CC(C2)CC1C3` (stereo not drawn) [Cmpd 2b, dispiro[adamantane-2,2′-[1,3,5]trioxolane-4′,1″-cyclohexane]-3″-one], in the experiment on P. falc, the EC50 came to 408 nM.
As to `O=C(Nc1cc(Cl)ccc1Cl)OC1CCCC2(C1)OOC1(O2)C2CC3CC(C2)CC1C3` (stereo not drawn) [Example 1, dispiro[adamantane-2,2′-[1,3,5]trioxolane-4′,1″-cyclohexane]-3″-yl N-(2,5-dichlorophenyl)carbamate], a half-maximal response with P. falc (EC50) required 14.3 nM.
Still for that read-out and setting: as for `C=CC1(OC(=O)Nc2cc(Cl)ccc2Cl)CCCC2(C1)OOC1(O2)C2CC3CC(C2)CC1C3` (stereo not drawn) [Example 2, 3″-ethenyldispiro[adamantane-2,2′-[1,3,5]trioxolane-4′,1′-cyclohexane]-3″-yl N-(2,5-dichlorophenyl)carbamate], the figure is 10.7 nM; as for `CC(C)(C)[C@H]1C[C@H](OC(=O)Nc2cc(Cl)ccc2Cl)CC2(C1)OOC1(O2)C2CC3CC(C2)CC1C3` (stereo partly drawn) [Example 3, (3″S,5″S)-5″-tert-butyldispiro[adamantane-2,2′-trioxolane-4′,1″-cyclohexane]-3″-yl N-(2,5-dichlorophenyl)carbamate], 65.7 nM.
As for `CCNC(=O)OC1CCCC2(C1)OOC1(O2)C2CC3CC(C2)CC1C3` (stereo not drawn) [Example 5, dispiro[adamantane-2,2′-[1,3,5]trioxolane-4′,1″-cyclohexane]-3″-yl N-ethylcarbamate], in the experiment with P. falc W2 (setting [1]), the EC50 came out at 5.9 nM.
For the compound `O=C(OC1CCCC2(C1)OOC1(O2)C2CC3CC(C2)CC1C3)N1CCCCC1[C@@H](O)c1cc(C(F)(F)F)nc2c(C(F)(F)F)cccc12` (stereo partly drawn) [Example 6, dispiro[adamantane-2,2′-[1,3,5]trioxolane-4′,1″-cyclohexane]-3″-v 2-[(S)-[2,8-bis(trifluoromethyl)quinolin-4-yl](hydroxy)methyl]piperidine-1-carboxylate], in the experiment on P. falc W2 (setting [1]), the EC50 amounted to 17.1 nM.
`CCCCC(C(=O)COc1c(F)c(F)cc(F)c1F)n1cc(C2(NC(=O)OC3CCCC4(C3)OOC3(O4)C4CC5CC(C4)CC3C5)CCCCC2)nn1` (stereo not drawn) [Example 9, dispiro[adamantane-2,2′-[1,3,5]trioxolane-4′,1″-cyclohexane]-3″-yl N-(1-{1-[2-oxo-1-(2,3,5,6-tetrafluorophenoxy)heptan-3-yl]-1H-1,2,3-triazol-4-yl}cyclohexyl)carbamate]: the concentration for a half-maximal effect (EC50) in the experiment on P. falc D10 (Plasmodium falciparum) is 29 nM; in the experiment with P. falc D10 it was 15.7 nM and 23.3 nM.
Turning to `COc1ccc(-c2cnnn2-c2cc(OC)c(OC)c(OC)c2)cc1NC(=O)OC1CCCC2(C1)OOC1(O2)C2CC3CC(C2)CC1C3` (stereo not drawn) [Example 11, dispiro[adamantane-2,2′-[1,3,5]trioxolane-4′,1″-cyclohexane]-3″-yl N-{2-methoxy-5-[1-(3,4,5-trimethoxyphenyl)-1H-1,2,3-triazol-5-yl]phenyl}carbamate], the EC50 in the experiment with P. falc W2 (setting [1]) is 34 nM; with HeLa, 57 nM; with PC-3, 26 nM; in the experiment on MCF-7, 24 nM; with MB-MDA-231 (setting [2]), 42 nM.
For the compound `COc1ccc(-c2cnnn2-c2cc(OC)c(OC)c(OC)c2)cc1NC(=O)OC1CCCC2(C1)OCC1(O2)C2CC3CC(C2)CC1C3` (stereo not drawn) [Example 12, dispiro[adamantane-2,4′-[1,3]dioxolane-2′,1″-cyclohexane]-3″-yl N-{2-methoxy-S-[1-(3,4,5-trimethoxyphenyl)-1H-1,2,3-triazol-5-yl]phenyl}carbamate], the EC50 with P. falc W2 (setting [1]), in the experiment on HeLa, in the experiment with PC-3 and in the experiment with MCF-7 was over 1000 nM each time.
With `COc1ccc(-c2cnnn2-c2cc(OC)c(OC)c(OC)c2)cc1NC(=O)OC1CCCC2(COC3(O2)C2CC4CC(C2)CC3C4)C1` (stereo not drawn) [Example 13, dispiro[adamantane-2,2′-[1,3]dioxolane-4′,1″-cyclohexane]-3″-yl N-{2-methoxy-5-[1-(3,4,5-trimethoxyphenyl)-1H-1,2,3-triazol-5-yl]phenyl}carbamate], the EC50 in the experiment on P. falc W2 (setting [1]), in the experiment on HeLa, in the experiment on PC-3, in the experiment on MCF-7, in the experiment on MB-MDA-231 (setting [2]) and in the experiment with U87MG was over 1000 nM each time.
Take `COc1ccc(/C=C/C(=O)N2CC(CCl)c3c2cc(NC(=O)OC2CCCC4(C2)OOC2(O4)C4CC5CC(C4)CC2C5)c2ccccc32)cc1` (stereo not drawn) [Example 14, dispiro[adamantane-2,2′-[1,3,5]trioxolane-4′,1″-cyclohexane]-3″-yl N-[1-(chloromethyl)-3-[(2E)-3-(4-methoxyphenyl)prop-2-enoyl]-1H,2H,3H-benzo[e]indol-5-yl]carbamate]: the EC50 was determined as 2.8 nM with P. falc W2 (setting [1]), 105 nM in the experiment on HeLa, 40 nM in the experiment on U87MG and 100 nM in the experiment with IMR90.
Turning to `COc1ccc(/C=C/C(=O)N2CC(CCl)c3c2cc(NC(=O)OC2CCCC4(C2)OCC2(O4)C4CC5CC(C4)CC2C5)c2ccccc32)cc1` (stereo not drawn) [Example 15, dispiro[adamantane-2,4′-[1,3]dioxolane-2′,1″-cyclohexane]-3″-yl N-[1-(chloromethyl)-3-[(2E)-3-(4-methoxyphenyl)prop-2-enoyl]-1H,2H,3H-benzo[e]indol-5-yl]carbamate], the values for the EC50 in the experiment with P. falc W2 (setting [1]), in the experiment with HeLa and in the experiment on IMR90 were 41 nM, over 1000 nM and over 1000 nM, respectively.
In turn, `O=C(Oc1ccc2ccc(=O)oc2c1)OC1CCCC2(C1)OOC1(O2)C2CC3CC(C2)CC1C3` (stereo not drawn) [Example 17, dispiro[adamantane-2,2′-[1,3,5]trioxolane-4′,1″-cyclohexane]-3″-yl 2-oxo-2H-chromen-7-yl carbonate] had an EC50 in the experiment on P. falc D10 (Plasmodium falciparum) of 25.3 nM.
With `CN(C)c1cccc2c(S(=O)(=O)NC34CC5CC(C3)C3(OOC6(CCCCC6)O3)C(C5)C4)cccc12` (stereo not drawn) [Example 20, 5-(dimethylamino)-N-{dispiro[adamantane-2,2′-trioxolane-4′,1″-cyclohexane]-7-yl}naphthalene-1-sulfonamide], a half-maximal response in the experiment with P. falc DD2 (EC50) required 11.4 nM.
With `CN(C)c1cccc2c(S(=O)(=O)N3CCC4(CC3)OOC3(O4)C4CC5CC(C4)CC3C5)cccc12` (stereo not drawn) [Example 21, 5-({dispiro[adamantane-2,2′-[1,3,5]trioxolane-4′,4″-piperidine]-1″-yl}sulfonyl)-N,N-dimethylnaphthalen-1-amine], the half-maximal effective concentration (EC50) in the experiment on P. falc DD2 is 54.2 nM.
Regarding `COc1ccc(C[C@H](NC(=O)OC2CCCC3(C2)OOC2(O3)C3CC4CC(C3)CC2C4)C(=O)N[C@H]2[C@@H](O)[C@H](n3cnc4c(N(C)C)ncnc43)O[C@@H]2CO)cc1` (stereo partly drawn) [Example 22, dispiro[adamantane-2,2′-[1,3,5]trioxolane-4′,1″-cyclohexane]-3″-yl N-[(1S)-1-{[(2S,3S,4R,5R)-5-[6-(dimethylamino)-9H-purin-9-yl]-4-hydroxy-2-(hydroxymethyl)oxolan-3-yl]carbamoyl}-2-(4-methoxyphenyl)ethyl]carbamate], the half-maximal effective concentration (EC50) was found to be 12.7 nM in the experiment on P. falc DD2, 3210 nM in the experiment with HeLa, 5270 nM in the experiment with MB-MDA-231 (setting [2]) and 6980 nM in the experiment on IMR90.
Consider `CC(C)(N)CNC(=O)OC1CCCC2(C1)OOC1(O2)C2CC3CC(C2)CC1C3` (stereo not drawn) [Example 23, Dispiro[adamantane-2,2′-[1,3,5]trioxolane-4′,1″-cyclohexane]-3″-yl N-(2-amino-2-methylpropyl)carbamate], for which the EC50 with P. falc W2 (setting [1]) is 5 nM.
The same measure, in the same setting: as for `COC1CCC[C@]2(C1)OOC1(O2)C2CC3CC(C2)CC1C3` (stereo partly drawn) [Example 25], the figure is 27 nM.
Consider `CCCCC(C(=O)COc1c(F)c(F)cc(F)c1F)n1cc(C2(N)CCCCC2)nn1` (stereo not drawn) [Literature Compound A, reference compound], for which the EC50 in the experiment with P. falc D10 (Plasmodium falciparum) was 70 nM.
For `COc1ccc(-c2cnnn2-c2cc(OC)c(OC)c(OC)c2)cc1N` [Literature Compound B, reference compound], the EC50 in the experiment on P. falc W2 (read-out: Activity EC50 (nM)) was over 1000 nM; with HeLa, 11 nM; in the experiment with PC-3 it was 9 nM; in the experiment on MCF-7, 10 nM; in the experiment with MB-MDA-231 (read-out: Activity EC50 (nM)), 10 nM.
Regarding `COc1ccc(/C=C/C(=O)N2CC(CCl)c3c2cc(N)c2ccccc32)cc1` (stereo not drawn) [Literature Compound C, reference compound], the EC50 in the experiment on P. falc W2 (read-out: Activity EC50 (nM)) stood at 0.45 nM; with HeLa, 11 nM; in the experiment on U87MG, 5 nM; in the experiment on IMR90, 3 nM.
For `COc1ccc(C[C@H](N)C(=O)N[C@H]2[C@@H](O)[C@H](n3cnc4c(N(C)C)ncnc43)O[C@@H]2CO)cc1` [Puromycin dihydrochloride, reference compound], the EC50 worked out at 25.3 nM in the experiment with P. falc DD2, 783 nM in the experiment with HeLa, 569 nM in the experiment with MB-MDA-231 (setting [2]) and 1700 nM with IMR90.

The record behind these values is US11014955B2, “Cyclic peroxides as prodrugs for selective delivery of agents” (THE REGENTS OF THE UNIVERSITY OF CALIFORNIA, priority 2014, dated 2021).
